The numbers were not newly measured in US20120141434A1, “Methods for Selecting Expanded Stem Cell Populations” (Gamida Cell Ltd., priority 2009, published 2012), which cites them from elsewhere.

The subject of data set [1] is cord blood-derived progenitor cells. Particulars: three-week treatment of cord blood cultures supplemented with early acting cytokines.
Another data set concerns NOD/SCID mice. Particulars: TEPA treated cultures compared to untreated cultures.

For `NCCNCCNCCNCCN` [TEPA, tetraethylenepentamine], in data set [1], the “ex vivo expansion of CD34+ cells” value was “prolonged and extensive”; the “percentages of early progenitors (CD34+CD38−, CD34+CD38−Lin-)” value is reported as “higher”. Also, the “engraftment potential in NOD/SCID mice” value with NOD/SCID mice is recorded as “increased”.
